Earlier results as cited in US20250152503A1, “IMPLANTABLE DEVICES FOR THE SUSTAINED DELIVERY OF AN OPIOID ANTAGONIST AND METHODS FOR TREATING INFLAMMATORY, NEUROINFLAMMATORY AND METABOLIC DISORDERS” (Delpor, Inc., priority 2022, published 2025).

Assays:
[1] = target: Toll-like receptor 4 (TLR4) (Homo sapiens, UniProt O00206+Q9Y6Y9)
[2] = 25° C.
[3] = oral, typical dose 50 mg/day

Chain of Toll-like receptor 4 (TLR4) (O00206 24-839, species assumed): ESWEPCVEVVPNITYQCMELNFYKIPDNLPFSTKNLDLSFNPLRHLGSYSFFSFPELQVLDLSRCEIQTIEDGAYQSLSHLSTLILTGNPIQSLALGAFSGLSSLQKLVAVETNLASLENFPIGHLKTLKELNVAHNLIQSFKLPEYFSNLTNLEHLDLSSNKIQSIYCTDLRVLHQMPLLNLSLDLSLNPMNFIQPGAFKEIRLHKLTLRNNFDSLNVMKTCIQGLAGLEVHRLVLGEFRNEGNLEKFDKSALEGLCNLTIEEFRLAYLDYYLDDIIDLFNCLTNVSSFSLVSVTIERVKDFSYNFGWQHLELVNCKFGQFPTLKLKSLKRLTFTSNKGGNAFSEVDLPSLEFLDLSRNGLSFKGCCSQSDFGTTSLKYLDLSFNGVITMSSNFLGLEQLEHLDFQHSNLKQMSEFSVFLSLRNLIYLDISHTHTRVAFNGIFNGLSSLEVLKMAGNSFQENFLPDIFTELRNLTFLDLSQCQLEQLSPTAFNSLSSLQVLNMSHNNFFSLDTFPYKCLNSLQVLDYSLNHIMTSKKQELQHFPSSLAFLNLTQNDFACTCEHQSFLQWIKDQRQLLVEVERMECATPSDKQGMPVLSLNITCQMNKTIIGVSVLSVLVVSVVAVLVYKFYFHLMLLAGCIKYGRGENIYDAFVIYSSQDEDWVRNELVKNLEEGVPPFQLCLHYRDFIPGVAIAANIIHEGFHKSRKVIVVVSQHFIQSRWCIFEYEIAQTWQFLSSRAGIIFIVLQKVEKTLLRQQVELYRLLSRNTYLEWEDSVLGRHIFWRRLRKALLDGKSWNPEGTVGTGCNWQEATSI
Chain of Toll-like receptor 4 (TLR4) (Q9Y6Y9 17-160 limits assumed, species assumed): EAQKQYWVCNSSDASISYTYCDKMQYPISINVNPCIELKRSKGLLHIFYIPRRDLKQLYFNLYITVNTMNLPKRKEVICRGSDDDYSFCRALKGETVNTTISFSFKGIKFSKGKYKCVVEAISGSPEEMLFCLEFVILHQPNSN

Compound | antagonism of TLR4 signaling [1] | reported aqueous solubility [2] | average bioavailability [3]
C=CCN1CC[C@]23c4c5ccc(O)c4O[C@H]2C(=O)CC[C@]3(O)[C@H]1C5 [(+)-naloxone] | antagonize TLR4 signaling |  | 
(−)-nalmefene | antagonize TLR4 signaling |  | 
O=C1CC[C@@]2(O)[C@H]3Cc4ccc(O)c5c4[C@@]2(CCN3CC2CC2)[C@H]1O5 [naltrexone] |  | 667 µg/mL | 5-40%
O=C1CC[C@]2(O)[C@@H]3Cc4ccc(O)c5c4[C@]2(CCN3CC2CC2)[C@@H]1O5 [(+)-naltrexone] | antagonize TLR4 signaling |  | 
(−)-naloxone | antagonize TLR4 signaling |  | 
C=C1CC[C@@]2(O)[C@H]3Cc4ccc(O)c5c4[C@@]2(CCN3CC2CC2)[C@H]1O5 [nalmefene] |  | 140 µg/mL | 
(−)-naltrexone | antagonize TLR4 signaling |  | 
